Counter-ions that a name gives are not always drawn. Like-named read-outs stand apart in the source and are kept apart here.
Test system: HUVECs
Assay: Tube formation (tubulogenesis) assay in HUVECs, 18 h
Type: cell-based, human
Conditions: Homo sapiens, HUVEC, 18 h
Procedure: Similar to the cultivation of iCell®-endothelial cells, HUVEC maintenance and experimentation are detailed elsewhere ([Iwata et al. 2017]). Briefly, HUVECs were thawed, seeded, and grown in T75 tissue culture flasks in Medium 199 with EGM™-2 BulletKits™. HUVECs were incubated at regular cell culture conditions, 37°C and 5% CO2 , and passaged every 2–3 d using TrypLE™ Express. To ensure adequate endothelial function, experiments were performed with cells between passages 1 and 5.
Tube formation assays were performed on Geltrex™ LDEV-free reduced growth factor basement membrane using both iCell®-endothelial cells and HUVECs in 384-well format exactly as detailed in Iwata et al. ([2017]). Negative controls included media-only and vehicle control (i.e., 0.5% vol/vol DMSO in cell culture media) wells. Positive assay controls were consistent with previously published reports ([Iwata et al. 2017]) and included TAB ( 50μM ) as a cytotoxic control, and nocodazole ( 0.01–1μM ), suramin ( 0.5–50μM ), histamine ( 0.1–100μM ), and chloroquine ( 1–500μM ) as chemicals associated with specific effects on ECs. Each test chemical was screened in triplicate for each concentration. Briefly, for iCell®-endothelial cells, starvation media consisted of VascuLife® basal medium with 4 mM L-glutamine LifeFactor and 0.1% iCell®-endothelial cells medium supplement. To counter dilution effects, a 2× concentration of the HUVEC maintenance medium supplemented with additional VEGF was created (EGM™-2 BulletKits™ at 2× concentration; also the VEGF component was replaced with 12.5 ng/mL VEGF). Geltrex™ LDEV-free reduced growth factor basement membrane was thawed overnight and dispensed into 384-well plates ( 10μL/well ) with tapping and rotating to evenly coat. The plates were incubated for 1 h in a cell culture incubator at 37°C and 5% CO2 . A 2× PCB plate (containing all of the PCBs and metabolites in dose–response) was prepared in basal media and added, 25μL per well, to the Geltrex™ coated plates. On separate plates, cells were seeded 7,500 (iPSC- ECs) or 3,500 (HUVEC) cells/well. Cells were exposed to chemicals overnight at 37°C and 5% CO2 and stained with 3× concentration of calcein AM ( 25μL /well, 6μmol/L ) for 15 min before imaging. Images were captured at 4× magnification with the FITC filter (calcein AM). Images were analyzed with the angiogenesis module software within MetaXpress™ (Molecular Devices).
Phenotypic responses were quantitatively assessed using concentration–response modeling as detailed elsewhere ([Sirenko et al. 2017]). Briefly, phenotypic readouts were normalized to vehicle controls and fit to a four-parameter logistic model in R studio software (version 3.1.1; R Development Core Team). Following EPA guidance on dose–response modeling, a cutoff of one standard deviation across means of vehicle control (i.e., 0.5% vol/vol DMSO in cell culture media) wells was applied to determine the point-of-departure (POD) values ([U.S. EPA 2012]). In the absence of a concentration–response, the highest tested concentration (i.e., 100μM ) was assigned as “no observable adverse effect level.” The concentration–response assessment R script, as well as templates for vehicle and concentration–response data, are available as a supplement to Sirenko et al. ([2017]). The ability of physicochemical properties to predict differences in PODs were evaluated by multiregression and mixed-effects modeling using R.

[1] = HUVECs, 0.01 µM, 0.00 µM = 100.00, read-out: huvec.mtl.18hr
[2] = HUVECs, 0.01 µM, 0.00 µM = 100.00, read-out: huvec.tlps.18hr
[3] = HUVECs, 0.01 µM, 0.00 µM = 100.00, read-out: huvec.tta.18hr
[4] = HUVECs, 0.01 µM, 0.00 µM = 100.00, read-out: huvec.ttl.18hr
[5] = HUVECs, 0.10 µM, 0.00 µM = 100.00, read-out: huvec.mtl.18hr
[6] = HUVECs, 0.10 µM, 0.00 µM = 100.00, read-out: huvec.tlps.18hr
[7] = HUVECs, 0.10 µM, 0.00 µM = 100.00, read-out: huvec.tta.18hr
[8] = HUVECs, 0.10 µM, 0.00 µM = 100.00, read-out: huvec.ttl.18hr
[9] = HUVECs, 1.00 µM, 0.00 µM = 100.00, read-out: huvec.mtl.18hr
[10] = HUVECs, 1.00 µM, 0.00 µM = 100.00, read-out: huvec.tlps.18hr
[11] = HUVECs, 1.00 µM, 0.00 µM = 100.00, read-out: huvec.tta.18hr
[12] = HUVECs, 1.00 µM, 0.00 µM = 100.00, read-out: huvec.ttl.18hr
[13] = HUVECs, 10.00 µM, 0.00 µM = 100.00, read-out: huvec.mtl.18hr
[14] = HUVECs, 10.00 µM, 0.00 µM = 100.00, read-out: huvec.tlps.18hr
[15] = HUVECs, 10.00 µM, 0.00 µM = 100.00, read-out: huvec.tta.18hr
[16] = HUVECs, 10.00 µM, 0.00 µM = 100.00, read-out: huvec.ttl.18hr
[17] = HUVECs, 100.00 µM, 0.00 µM = 100.00, read-out: huvec.mtl.18hr
[18] = HUVECs, 100.00 µM, 0.00 µM = 100.00, read-out: huvec.tlps.18hr
[19] = HUVECs, 100.00 µM, 0.00 µM = 100.00, read-out: huvec.tta.18hr
[20] = HUVECs, 100.00 µM, 0.00 µM = 100.00, read-out: huvec.ttl.18hr
[21] = HUVECs, top concentration 100.00 µM, read-out: huvec.mtl.18hr POD
[22] = HUVECs, top concentration 100.00 µM, read-out: huvec.tlps.18hr POD
[23] = HUVECs, top concentration 100.00 µM, read-out: huvec.tta.18hr POD
[24] = HUVECs, top concentration 100.00 µM, read-out: huvec.ttl.18hr POD

Compound: COc1cc(Cl)c(-c2cc(Cl)ccc2Cl)cc1Cl [4-OMe PCB52]
- minimal effective concentration (HUVECs tube formation, MAX 100.00, read-out: huvec.mtl.18hr POD): 17.1 µM
- minimal effective concentration (HUVECs tube formation, MAX 100.00, read-out: huvec.tlps.18hr POD): 14.2 µM
- minimal effective concentration (HUVECs tube formation, MAX 100.00, read-out: huvec.tta.18hr POD): 100 µM
- minimal effective concentration (HUVECs tube formation, MAX 100.00, read-out: huvec.ttl.18hr POD): 100 µM
- activity at 0.01 µM (HUVECs tube formation, concentration 0.01 µM, 0.00 µM = 100.00, read-out: huvec.mtl.18hr): 105%
- activity at 0.01 µM (HUVECs tube formation, concentration 0.01 µM, 0.00 µM = 100.00, read-out: huvec.tlps.18hr): 93.8%
- activity at 0.01 µM (HUVECs tube formation, concentration 0.01 µM, 0.00 µM = 100.00, read-out: huvec.tta.18hr): 98.5%
- activity at 0.01 µM (HUVECs tube formation, concentration 0.01 µM, 0.00 µM = 100.00, read-out: huvec.ttl.18hr): 87.4%
- activity at 0.1 µM (HUVECs tube formation, concentration 0.10 µM, 0.00 µM = 100.00, read-out: huvec.mtl.18hr): 95.6%
- activity at 0.1 µM (HUVECs tube formation, concentration 0.10 µM, 0.00 µM = 100.00, read-out: huvec.tlps.18hr): 86.8%
- activity at 0.1 µM (HUVECs tube formation, concentration 0.10 µM, 0.00 µM = 100.00, read-out: huvec.tta.18hr): 80.4%
- activity at 0.1 µM (HUVECs tube formation, concentration 0.10 µM, 0.00 µM = 100.00, read-out: huvec.ttl.18hr): 70.5%
- activity at 1 µM (HUVECs tube formation, concentration 1.00 µM, 0.00 µM = 100.00, read-out: huvec.mtl.18hr): 109%
- activity at 1 µM (HUVECs tube formation, concentration 1.00 µM, 0.00 µM = 100.00, read-out: huvec.tlps.18hr): 140%
- activity at 1 µM (HUVECs tube formation, concentration 1.00 µM, 0.00 µM = 100.00, read-out: huvec.tta.18hr): 102%
- activity at 1 µM (HUVECs tube formation, concentration 1.00 µM, 0.00 µM = 100.00, read-out: huvec.ttl.18hr): 93.9%
- activity at 10 µM (HUVECs tube formation, concentration 10.00 µM, 0.00 µM = 100.00, read-out: huvec.mtl.18hr): 94.7%
- activity at 10 µM (HUVECs tube formation, concentration 10.00 µM, 0.00 µM = 100.00, read-out: huvec.tlps.18hr): 81.4%
- activity at 10 µM (HUVECs tube formation, concentration 10.00 µM, 0.00 µM = 100.00, read-out: huvec.tta.18hr): 92.9%
- activity at 10 µM (HUVECs tube formation, concentration 10.00 µM, 0.00 µM = 100.00, read-out: huvec.ttl.18hr): 84.8%
- activity at 100 µM (HUVECs tube formation, concentration 100.00 µM, 0.00 µM = 100.00, read-out: huvec.mtl.18hr): 59.2%
- activity at 100 µM (HUVECs tube formation, concentration 100.00 µM, 0.00 µM = 100.00, read-out: huvec.tlps.18hr): 42.6%
- activity at 100 µM (HUVECs tube formation, concentration 100.00 µM, 0.00 µM = 100.00, read-out: huvec.tta.18hr): 75.1%
- activity at 100 µM (HUVECs tube formation, concentration 100.00 µM, 0.00 µM = 100.00, read-out: huvec.ttl.18hr): 67.4%

Compound: O=S(=O)(O)Oc1ccc(-c2cccc(Cl)c2)cc1Cl [4-yl PCB 11 sulfate]
- activity at 0.01 µM [1]: 96.8%
- activity at 0.01 µM [2]: 110%
- activity at 0.01 µM [3]: 98.3%
- activity at 0.01 µM [4]: 87.1%
- activity at 0.1 µM [5]: 112%
- activity at 0.1 µM [6]: 133%
- activity at 0.1 µM [7]: 109%
- activity at 0.1 µM [8]: 98.7%
- activity at 1 µM [9]: 108%
- activity at 1 µM [10]: 110%
- activity at 1 µM [11]: 123%
- activity at 1 µM [12]: 113%
- activity at 10 µM [13]: 95%
- activity at 10 µM [14]: 103%
- activity at 10 µM [15]: 84.6%
- activity at 10 µM [16]: 77%
- activity at 100 µM [17]: 52.2%
- activity at 100 µM [18]: 35.8%
- activity at 100 µM [19]: 50.9%
- activity at 100 µM [20]: 56.1%
- minimal effective concentration [21]: 14.3 µM
- minimal effective concentration [22]: 27.2 µM
- minimal effective concentration [23]: 100 µM
- minimal effective concentration [24]: 100 µM

Compound: O=S(=O)(O)Oc1cc(Cl)c(-c2cc(Cl)ccc2Cl)cc1Cl [4-yl PCB 52 sulfate]
- activity at 0.01 µM [1]: 91.2%
- activity at 0.01 µM [2]: 86.7%
- activity at 0.01 µM [3]: 66.3%
- activity at 0.01 µM [4]: 59.7%
- activity at 0.1 µM [5]: 103%
- activity at 0.1 µM [6]: 108%
- activity at 0.1 µM [7]: 99.9%
- activity at 0.1 µM [8]: 89.7%
- activity at 1 µM [9]: 99%
- activity at 1 µM [10]: 111%
- activity at 1 µM [11]: 97.7%
- activity at 1 µM [12]: 87.2%
- activity at 10 µM [13]: 93.2%
- activity at 10 µM [14]: 84.7%
- activity at 10 µM [15]: 79.1%
- activity at 10 µM [16]: 70.9%
- activity at 100 µM [17]: 61.8%
- activity at 100 µM [18]: 26.3%
- activity at 100 µM [19]: 85.2%
- activity at 100 µM [20]: 94.3%
- minimal effective concentration [21]: 14.6 µM
- minimal effective concentration [22]: 10.1 µM
- minimal effective concentration [23]: 100 µM
- minimal effective concentration [24]: 100 µM

From publication PMC7377239, “Cardiovascular Effects of Polychlorinated Biphenyls and Their Major Metabolites” (Environmental Health Perspectives, 2020)
